Patent US7138361B2, “Herbicidal heterocycles” (E. I. du Pont de Nemours and Company, priority 2000, dated 2006)

Assays:
Type in all cases: in vivo
Sunflower [1] = experiment: Test C preemergence; details: Rate 250 g/ha, visual evaluation after 12 to 14 days
[2] = test system: Surinam grass (Brachiaria decumbens); experiment: Test C preemergence; details: for Plant response rating (0 to 100), Surinam grass: Rate 250 g/ha, visual evaluation after 12 to 14 days
In short: (§1)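 Preemergence: seeds sown then treated. Postemergence: plants 2–18 cm, 1- to 4-leaf. Both with surfactant-containing solvent formulation; visual injury scored 0–100 after 12–14 d.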

[3] = test system: lambsquarters (Chenopodium album); experiment: Test C preemergence; details: for Plant response rating (0 to 100), Lambsquarters: Rate 250 g/ha, visual evaluation after 12 to 14 days
In short: as §1

[4] = test system: johnsongrass (Sorghum halepense); experiment: Test C preemergence; details: for Plant response rating (0 to 100), Johnsongrass: Rate 250 g/ha, visual evaluation after 12 to 14 days
In short: as §1

[5] = test system: cocklebur (Xanthium strumarium); experiment: Test C preemergence; details: for Plant response rating (0 to 100), Cocklebur: Rate 250 g/ha, visual evaluation after 12 to 14 days
In short: as §1

[6] = test system: giant foxtail (Setaria faberii); experiment: Test C preemergence; details: for Plant response rating (0 to 100), Foxtail, Giant: Rate 250 g/ha, visual evaluation after 12 to 14 days
In short: as §1

[7] = test system: common ragweed (Ambrosia elatior); experiment: Test C preemergence; details: for Plant response rating (0 to 100), Ragweed, Common: Rate 250 g/ha, visual evaluation after 12 to 14 days
In short: as §1

[8] = test system: pigweed (Amaranthus retroflexus); experiment: Test C preemergence; details: for Plant response rating (0 to 100), Pigweed: Rate 250 g/ha, visual evaluation after 12 to 14 days
In short: as §1

Sunflower [9] = experiment: Test C preemergence
kochia (Kochia scoparia) = experiment: Test C preemergence; details: for Plant response rating (0 to 100), Kochia: Rate 250 g/ha, visual evaluation after 12 to 14 days
In short: as §1

[10] = test system: bermudagrass (Cynodon dactylon); experiment: Test C preemergence; details: for Plant response rating (0 to 100 where 0 is no effect and 100 is complete control), Bermudagrass: Rate 250 g/ha, visual evaluation after 12 to 14 days
In short: as §1

[11] = test system: crabgrass (Digitaria sanguinalis); experiment: Test C preemergence; details: for Plant response rating (0 to 100), Crabgrass: Rate 250 g/ha, visual evaluation after 12 to 14 days
In short: as §1

Nightshade = experiment: Test C preemergence
[12] = test system: morningglory (Ipomoea hederacea); experiment: Test C preemergence; details: for Plant response rating (0 to 100), Morningglory: Rate 250 g/ha, visual evaluation after 12 to 14 days
In short: as §1

soybean (Glycine max) = experiment: Test C preemergence; details: for Plant response rating (0 to 100), Soybean: Rate 250 g/ha, visual evaluation after 12 to 14 days
In short: as §1

[13] = test system: woolly cupgrass (Eriochloa villosa); experiment: Test C preemergence; details: for Plant response rating (0 to 100), Cupgrass, Woolly: Rate 250 g/ha, visual evaluation after 12 to 14 days
In short: as §1

corn (Zea mays) = experiment: Test C preemergence; details: for Plant response rating (0 to 100), Corn: Rate 250 g/ha, visual evaluation after 12 to 14 days
In short: as §1

[14] = test system: yellow nutsedge (Cyperus esculentus); experiment: Test C preemergence; details: for Plant response rating (0 to 100), Nutsedge: Rate 250 g/ha, visual evaluation after 12 to 14 days
In short: as §1

[15] = test system: velvetleaf (Abutilon theophrasti); experiment: Test C preemergence; details: for Plant response rating (0 to 100), Velvetleaf: Rate 250 g/ha, visual evaluation after 12 to 14 days
In short: as §1

[16] = test system: goosegrass (Eleusine indica); experiment: Test C preemergence; details: for Plant response rating (0 to 100), Goosegrass: Rate 250 g/ha, visual evaluation after 12 to 14 days
In short: as §1

[17] = test system: barnyardgrass (Echinochloa crus-galli); experiment: Test C flooded paddy test; details: for Barnyardgrass plant response rating: Flooded Paddy, scale 0 to 100, 0 no effect, 100 complete control; for Plant response rating, Barnyardgrass: flooded paddy test, scale 0 to 100 (0 no effect, 100 complete control)
In short: (§2)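 Greenhouse-maintained for 12 to 14 days after treatment, the paddy plants (2-leaf stage at application) were scored visually against controls. A score of 0 denotes no effect and a score of 100 denotes complete control.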

rice (Oryza saliva) = experiment: Test C flooded paddy test; details: for Rice plant response rating: Flooded Paddy, scale 0 to 100, 0 no effect, 100 complete control; for Plant response rating, Rice: flooded paddy test, scale 0 to 100 (0 no effect, 100 complete control)
In short: as §2

[18] = Rate 62 g/ha, scale 0 to 100, 0 no effect, 100 complete control
[19] = preemergence, Rate 31 g/ha, scale 0 to 100
[20] = preemergence, Rate 125 g/ha, scale 0 to 100, 0 no effect, 100 complete control
[21] = Rate 125 g/ha, scale 0 to 100, 0 no effect, 100 complete control
[22] = Preemergence, Rate 500 g/ha, scale 0 to 100

O=C1C(n2ccc(C3CCC3)n2)SCN1c1cccc(C(F)(F)F)c1 (stereo not shown) [Compound 37]
70: Plant response rating, Foxtail, Giant [6, 20] | Plant response rating, Bermudagrass [10, 18] | Plant response rating, Barnyardgrass ([17]; Rate 62 g/ha)
90: Plant response rating (0 to 100), Surinam grass ([2]; preemergence) | Plant response rating (0 to 100), Johnsongrass ([4]; preemergence) | Plant response rating, Crabgrass [11, 18] | Plant response rating, Crabgrass [11, 20] | Plant response rating, Goosegrass [16, 18] | Plant response rating, Goosegrass [16, 20] | Rice plant response rating (rice (Oryza saliva); Rate 500 g/ha)
20: Plant response rating, Johnsongrass [4, 19] | Plant response rating, Ragweed, Common [7, 20] | Plant response rating, Nutsedge [14, 18] | Plant response rating, Nutsedge [14, 20] | Plant response rating (0 to 100), Velvetleaf ([15]; preemergence) | Plant response rating, Velvetleaf [15, 20]
50: Plant response rating, Foxtail, Giant [6, 19] | Plant response rating, Kochia (kochia (Kochia scoparia); [18]) | Plant response rating (0 to 100), Soybean (soybean (Glycine max); preemergence)
40: Plant response rating, Kochia (kochia (Kochia scoparia); [19]) | Plant response rating (0 to 100), Corn (corn (Zea mays); preemergence) | Plant response rating, Corn (corn (Zea mays); [20])
30: Plant response rating, Johnsongrass [4, 18] | Plant response rating, Johnsongrass [4, 20] | Plant response rating (0 to 100), Morningglory ([12]; preemergence) | Plant response rating (0 to 100), Nutsedge ([14]; preemergence) | Rice plant response rating (rice (Oryza saliva); Rate 250 g/ha)
60: Plant response rating (0 to 100), Sunflower (Sunflower [1]) | Plant response rating, Foxtail, Giant [6, 18] | Plant response rating (0 to 100), Ragweed, Common ([7]; preemergence) | Plant response rating, Bermudagrass [10, 19] | Plant response rating, Goosegrass [16, 19]
0: Plant response rating, Surinam grass [2, 18] | Plant response rating, Surinam grass [2, 19] | Plant response rating, Surinam grass [2, 20] | Plant response rating, Cocklebur [5, 19] | Plant response rating (0 to 100), Cocklebur ([5]; preemergence) | Plant response rating, Cocklebur [5, 20] | Plant response rating, Ragweed, Common [7, 18] | Plant response rating, Ragweed, Common [7, 19] | Plant response rating, Pigweed [8, 18] | Plant response rating, Pigweed [8, 19] | Plant response rating, Pigweed [8, 20] | Plant response rating, Sunflower (Sunflower [9]; [18]) | Plant response rating, Nightshade (Nightshade; Rate 31 g/ha, scale 0 to 100) | Plant response rating, Nightshade (Nightshade; [18]) | Plant response rating, Nightshade (Nightshade; [21]) | Plant response rating, Morningglory [12, 18] | Plant response rating, Morningglory [12, 19] | Plant response rating, Morningglory [12, 20] | Plant response rating, Soybean (soybean (Glycine max); [18]) | Plant response rating, Soybean (soybean (Glycine max); [19]) | Plant response rating, Cupgrass, Woolly [13, 18] | Plant response rating, Cupgrass, Woolly [13, 19] | Plant response rating, Cupgrass, Woolly [13, 20] | Plant response rating, Corn (corn (Zea mays); [18]) | Plant response rating, Corn (corn (Zea mays); [19]) | Plant response rating, Nutsedge [14, 19] | Plant response rating, Velvetleaf [15, 18] | Plant response rating, Velvetleaf [15, 19] | Plant response rating, Rice (rice (Oryza saliva); Rate 62 g/ha) | Plant response rating, Rice (rice (Oryza saliva); Rate 125 g/ha)
80: Plant response rating, Bermudagrass [10, 20] | Plant response rating, Crabgrass [11, 19]
100: Plant response rating, Lambsquarters [3, 18] | Plant response rating, Lambsquarters [3, 19] | Plant response rating (0 to 100), Lambsquarters ([3]; preemergence) | Plant response rating, Lambsquarters [3, 20] | Plant response rating (0 to 100), Foxtail, Giant ([6]; preemergence) | Plant response rating (0 to 100), Pigweed ([8]; preemergence) | Plant response rating (0 to 100), Kochia (kochia (Kochia scoparia); preemergence) | Plant response rating, Kochia (kochia (Kochia scoparia); [20]) | Plant response rating (0 to 100 where 0 is no effect and 100 is complete control), Bermudagrass ([10]; preemergence) | Plant response rating (0 to 100), Crabgrass ([11]; preemergence) | Plant response rating (0 to 100), Cupgrass, Woolly ([13]; preemergence) | Plant response rating (0 to 100), Goosegrass ([16]; preemergence) | Barnyardgrass plant response rating ([17]; Rate 250 g/ha) | Barnyardgrass plant response rating ([17]; Rate 500 g/ha) | Plant response rating, Barnyardgrass ([17]; Rate 125 g/ha)

O=C1C(n2ccc(C3CCC3)n2)SCN1c1cccc(OC(F)(F)F)c1 (stereo not shown) [Compound 38]
20: Plant response rating (0 to 100), Cocklebur ([5]; preemergence) | Plant response rating, Ragweed, Common [7, 20] | Plant response rating, Velvetleaf [15, 22] | Plant response rating (0 to 100), Velvetleaf ([15]; preemergence) | Plant response rating, Rice (rice (Oryza saliva); Rate 62 g/ha)
30: Plant response rating, Pigweed [8, 22] | Plant response rating, Kochia (kochia (Kochia scoparia); [18]) | Plant response rating, Rice (rice (Oryza saliva); Rate 125 g/ha)
40: Plant response rating, Johnsongrass [4, 18] | Plant response rating (0 to 100), Ragweed, Common ([7]; preemergence)
70: Plant response rating, Kochia (kochia (Kochia scoparia); [20]) | Plant response rating, Nutsedge [14, 22]
80: Plant response rating, Foxtail, Giant [6, 18] | Plant response rating, Goosegrass [16, 18] | Rice plant response rating (rice (Oryza saliva); Rate 500 g/ha)
60: Plant response rating (0 to 100), Sunflower (Sunflower [1]) | Plant response rating, Cocklebur [5, 22] | Plant response rating, Sunflower (Sunflower [9]; Rate 500 g/ha, scale 0 to 100) | Plant response rating, Bermudagrass [10, 18]
0: Plant response rating, Surinam grass [2, 18] | Plant response rating (0 to 100), Surinam grass ([2]; preemergence) | Plant response rating, Surinam grass [2, 20] | Plant response rating, Cocklebur [5, 18] | Plant response rating, Cocklebur [5, 20] | Plant response rating, Foxtail, Giant [6, 20] | Plant response rating, Ragweed, Common [7, 18] | Plant response rating, Pigweed [8, 18] | Plant response rating (0 to 100), Pigweed ([8]; preemergence) | Plant response rating, Pigweed [8, 20] | Plant response rating, Sunflower (Sunflower [9]; [18]) | Plant response rating, Nightshade (Nightshade; [18]) | Plant response rating, Nightshade (Nightshade; [21]) | Plant response rating, Morningglory [12, 22] | Plant response rating (0 to 100), Morningglory ([12]; preemergence) | Plant response rating, Morningglory [12, 20] | Plant response rating, Soybean (soybean (Glycine max); [22]) | Plant response rating, Soybean (soybean (Glycine max); [18]) | Plant response rating (0 to 100), Soybean (soybean (Glycine max); preemergence) | Plant response rating, Soybean (soybean (Glycine max); [20]) | Plant response rating, Cupgrass, Woolly [13, 18] | Plant response rating (0 to 100), Cupgrass, Woolly ([13]; preemergence) | Plant response rating, Cupgrass, Woolly [13, 20] | Plant response rating, Corn (corn (Zea mays); [22]) | Plant response rating, Corn (corn (Zea mays); [18]) | Plant response rating (0 to 100), Corn (corn (Zea mays); preemergence) | Plant response rating, Corn (corn (Zea mays); [20]) | Plant response rating, Nutsedge [14, 18] | Plant response rating (0 to 100), Nutsedge ([14]; preemergence) | Plant response rating, Nutsedge [14, 20] | Plant response rating, Velvetleaf [15, 18] | Plant response rating, Velvetleaf [15, 20]
90: Plant response rating, Surinam grass [2, 22] | Plant response rating, Lambsquarters [3, 18] | Plant response rating, Johnsongrass [4, 22] | Plant response rating (0 to 100), Johnsongrass ([4]; preemergence) | Plant response rating (0 to 100), Kochia (kochia (Kochia scoparia); preemergence) | Plant response rating, Bermudagrass [10, 20] | Plant response rating, Crabgrass [11, 18] | Plant response rating, Nightshade (Nightshade; Rate 500 g/ha, scale 0 to 100) | Plant response rating, Cupgrass, Woolly [13, 22] | Plant response rating, Goosegrass [16, 20]
100: Plant response rating, Lambsquarters [3, 22] | Plant response rating (0 to 100), Lambsquarters ([3]; preemergence) | Plant response rating, Lambsquarters [3, 20] | Plant response rating, Foxtail, Giant [6, 22] | Plant response rating (0 to 100), Foxtail, Giant ([6]; preemergence) | Plant response rating, Ragweed, Common [7, 22] | Plant response rating, Kochia (kochia (Kochia scoparia); [22]) | Plant response rating, Bermudagrass [10, 22] | Plant response rating (0 to 100 where 0 is no effect and 100 is complete control), Bermudagrass ([10]; preemergence) | Plant response rating, Crabgrass [11, 22] | Plant response rating (0 to 100), Crabgrass ([11]; preemergence) | Plant response rating, Crabgrass [11, 20] | Plant response rating, Goosegrass [16, 22] | Plant response rating (0 to 100), Goosegrass ([16]; preemergence) | Barnyardgrass plant response rating ([17]; Rate 250 g/ha) | Barnyardgrass plant response rating ([17]; Rate 500 g/ha) | Plant response rating, Barnyardgrass ([17]; Rate 62 g/ha) | Plant response rating, Barnyardgrass ([17]; Rate 125 g/ha)
50: Plant response rating, Johnsongrass [4, 20] | Rice plant response rating (rice (Oryza saliva); Rate 250 g/ha)
